According to publication PMC11514289 (Nature Communications, 2024):

Experiments:
SaSir2-HerA = target: T1, SaSir2-HerA (Staphylococcus aureus, UniProt C1PH93); assay: biolayer interferometry, protein captured on Ni-NTA sensor; format: binding
T1 sequence (C1PH93 1-428): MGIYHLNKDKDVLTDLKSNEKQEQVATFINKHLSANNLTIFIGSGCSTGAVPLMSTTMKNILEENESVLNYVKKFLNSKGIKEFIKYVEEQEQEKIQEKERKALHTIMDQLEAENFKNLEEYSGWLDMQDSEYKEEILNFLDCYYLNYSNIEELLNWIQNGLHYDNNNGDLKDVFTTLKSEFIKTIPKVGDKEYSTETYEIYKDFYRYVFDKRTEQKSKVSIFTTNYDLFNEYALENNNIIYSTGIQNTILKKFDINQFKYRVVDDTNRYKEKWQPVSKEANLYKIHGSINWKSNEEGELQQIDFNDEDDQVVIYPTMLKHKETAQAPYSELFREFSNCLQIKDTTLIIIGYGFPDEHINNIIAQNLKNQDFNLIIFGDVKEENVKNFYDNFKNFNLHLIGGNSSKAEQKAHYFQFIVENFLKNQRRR
T1 sequence (C1PH94 1-562 partner): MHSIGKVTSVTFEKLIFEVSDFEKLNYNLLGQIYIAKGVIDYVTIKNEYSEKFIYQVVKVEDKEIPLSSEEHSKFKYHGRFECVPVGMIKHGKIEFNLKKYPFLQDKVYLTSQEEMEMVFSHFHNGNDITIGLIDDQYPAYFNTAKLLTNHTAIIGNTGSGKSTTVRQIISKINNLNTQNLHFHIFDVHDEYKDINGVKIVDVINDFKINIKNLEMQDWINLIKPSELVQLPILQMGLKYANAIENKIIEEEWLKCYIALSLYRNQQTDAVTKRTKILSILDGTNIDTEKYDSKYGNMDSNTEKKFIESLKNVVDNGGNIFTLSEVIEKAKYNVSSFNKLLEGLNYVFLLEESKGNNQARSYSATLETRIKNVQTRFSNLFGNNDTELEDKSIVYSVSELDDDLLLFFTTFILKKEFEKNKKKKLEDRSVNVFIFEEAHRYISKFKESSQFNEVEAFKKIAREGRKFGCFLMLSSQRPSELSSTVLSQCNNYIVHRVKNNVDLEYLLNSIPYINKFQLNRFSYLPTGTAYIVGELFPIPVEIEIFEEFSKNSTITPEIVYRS

[1] = target: SaSir2 (Sir2 of Staphylococcus aureus), 6x His-tagged, expressed alone (Staphylococcus aureus); assay: AUC

Compound	Kd (SaSir2-HerA)	stoichiometry N [1]
NC(=O)c1ccc[n+]([C@@H]2O[C@H](COP(=O)(O)OP(=O)(O)OC[C@H]3O[C@@H](n4cnc5c(N)ncnc54)[C@H](O)[C@@H]3O)[C@@H](O)[C@H]2O)c1 [NAD^+]	4.39 µM	–
SaSir2 (Sir2 of Staphylococcus aureus), 6x His-tagged, expressed alone (enzyme)	–	2
